The record followed here is patent US10508102B2, “Inhibitors of cellular necrosis and related methods” (President and Fellows of Harvard College, priority 2014, dated 2019).

The test system of assay [1] is human FADD-deficient Jurkat T cells. Description: Cellular necrosis inhibition, FADD-deficient Jurkat T cells challenged with TNF-alpha (CellTiter-Glo viability). As to conditions: 30 hours, ATP-based cell viability. The procedure:
FADD−/− Jurkat cells (Juo P, et al. Cell Growth Differ. 1999, 10(12):797-804) were seeded at the density of 5*10^5 cells/mL into 96 well white plates (Costar) at 100 μL/well. […] Cells were treated in duplicate with various concentrations of test compounds in the presence or absence of 10 ng/ml human TNF-alpha. (Cell Sciences).
After 30 hours, viability of the cells was determined using luminescent ATP-based cell viability assay (CellTiter-Glo, Promega). Percentage of protection by the compound was calculated as a ratio of the cps (counts per second) value in the well treated with the test compound and TNF-alpha. to the cps value in the well treated with the compound alone. Assays were repeated twice, and the average EC50 value over both assays was calculated.
Exemplary compounds of structure (II) were screened for anti-necrotic activity according to the general procedures of Example 7.

The target of assay [2] is GST-human RIP1 kinase domain (amino acids 1-327) (Homo sapiens (Human), UniProt Q13546). Briefly: RIP1 kinase ADP-Glo assay.
Description: RIP1 kinase assays were performed using ADP-Glo assay (Promega) according to manufacturer's protocol. […] Reactions were performed for 4 hr at room temperature and stopped by incubation with ADP-Glo reagent for 40 min at room temperature. Luminescent signal was developed by incubation with Kinase Detection reagent for 30 min at room temperature. Signal was determined using Victor3V platereader (Perkin Elmer). Non-linear regression to calculate EC50 values was performed using GraphPad Prism software package.
[3] abbreviates: 10 ng/ml human TNF-alpha plus Smac mimetic (10 nM SM-164), read-out: EC50 (nM) TNFα + Smac.
[4] abbreviates: 10 ng/ml human TNF-alpha, read-out: EC50 (nM) TNFα.

Read-outs that look alike come from different tables or passages of the source.

Sequence of GST-human RIP1 kinase domain (amino acids 1-327) (Q13546 1-327): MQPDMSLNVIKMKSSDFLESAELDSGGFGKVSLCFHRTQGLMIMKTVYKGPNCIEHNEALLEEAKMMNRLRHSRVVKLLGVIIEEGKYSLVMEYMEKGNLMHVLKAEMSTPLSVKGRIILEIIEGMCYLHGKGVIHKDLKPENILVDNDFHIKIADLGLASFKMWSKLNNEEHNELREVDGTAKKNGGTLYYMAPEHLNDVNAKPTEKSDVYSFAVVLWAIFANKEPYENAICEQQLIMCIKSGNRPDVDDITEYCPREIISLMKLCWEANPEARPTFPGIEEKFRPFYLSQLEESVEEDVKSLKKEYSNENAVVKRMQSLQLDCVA

With `O=C1NC(Cc2c[nH]c3c(Cl)c(F)ccc23)C(=O)N1Cc1ccccc1F` (centres unmarked) [II-5, 5-((7-chloro-6-fluoro-1H-indol-3-yl)methyl)-3-(2-fluorobenzyl)imidazolidine-2,4-dione], the results for the EC50 in assay [1] (setting [3]) and in assay [1] (setting [4]) were 892 nM and 235 nM, respectively.
On to `CN1C(=O)N[C@H](Cc2c[nH]c3c(Cl)cc(F)cc23)C1=O` [Compound F, reference compound], for which the EC50 in assay [1] (setting [3]) was above 100000 nM; in assay [1] (setting [4]), 10500 nM.
Turning to `O=C1NC(Cc2c[nH]c3c(Cl)cccc23)C(=O)N1Cc1cccc(F)c1` (centres unmarked) [II-2, 5-((7-chloro-1H-indol-3-yl)methyl)-3-(3-fluorobenzyl)imidazolidine-2,4-dione], the concentration giving a half-maximal response (EC50) is 895 nM in assay [1] (setting [3]), 41 nM in assay [1] (setting [4]) and below 100 nM in assay [2].
As to `CN1C(=O)N[C@H](Cc2c[nH]c3c(Cl)cccc23)C1=O` [Compound A, reference compound], the figures for the half-maximal effective concentration (EC50) in assay [1] (setting [3]) and in assay [1] (setting [4]) were 324 nM and 90.5 nM, respectively.
In the same order, the values of `CN1C(=O)N[C@H](Cc2c[nH]c3c(Cl)ccc(F)c23)C1=O` [Compound E, reference compound] are 8330 nM and 2330 nM.
Turning to `CN1C(=O)N[C@H](Cc2c[nH]c3c(Cl)c(Cl)ccc23)C1=O` [B, reference compound], in assay [1] (setting [4]), the EC50 was above 100000 nM.
Regarding `O=C1NC(Cc2c[nH]c3c(Cl)c(F)ccc23)C(=O)N1Cc1ccc(F)c(F)c1` (centres unmarked) [II-7, 5-((7-chloro-6-fluoro-1H-indol-3-yl)methyl)-3-(3,4-difluorobenzyl)imidazolidine-2,4-dione], the EC50 was 722 nM in assay [1] (setting [3]) and 121 nM in assay [1] (setting [4]).
Consider `O=C1NC(Cc2c[nH]c3c(Cl)cccc23)C(=O)N1Cc1ccc(F)cc1` (centres unmarked) [II-4, 5-((7-chloro-1H-indol-3-yl)methyl)-3-(4-fluorobenzyl)imidazolidine-2,4-dione], for which the EC50 in assay [1] (setting [3]) worked out at 867 nM; in assay [1] (setting [4]), 220 nM.
Turning to `O=C1NC(Cc2c[nH]c3c(Cl)c(F)ccc23)C(=O)N1Cc1cccc(F)c1F` (centres unmarked) [II-6, 5-((7-chloro-6-fluoro-1H-indol-3-yl)methyl)-3-(2,3-difluorobenzyl)imidazolidine-2,4-dione], the concentration for a half-maximal effect (EC50) in assay [1] (setting [3]) worked out at 822 nM; in assay [1] (setting [4]), 50 nM.
As to `O=C1NC(Cc2c[nH]c3ccccc23)C(=O)N1Cc1ccc(Cl)cc1` (centres unmarked) [Compound C1, reference compound], in assay [1] (setting [4]), the EC50 was 343 nM.
In the case of `O=C1NC(Cc2c[nH]c3c(Cl)cccc23)C(=O)N1Cc1ccc(F)c(F)c1` (centres unmarked) [II-3, 5-((7-chloro-1H-indol-3-yl)methyl)-3-(3,4-difluorobenzyl)imidazolidine-2,4-dione], the half-maximal effective concentration (EC50) is 426 nM in assay [1] (setting [3]), 89 nM in assay [1] (setting [4]) and below 100 nM in assay [2].
Consider `CN1C(=O)N[C@H](Cc2c[nH]c3c(Cl)c(F)ccc23)C1=O` [Compound (Ia), (R)-5-((7-chloro-6-fluoro-1H-indol-3-yl)methyl)-3-methylimidazolidine-2,4-dione], for which the results for the half-maximal effective concentration (EC50) in assay [1] (setting [3]) and in assay [2] were 86.6 nM and 93.7 nM, respectively.
On to `O=C1NC(Cc2c[nH]c3c(Cl)cccc23)C(=O)N1Cc1ccccc1F` (centres unmarked) [II-1, 5-((7-chloro-1H-indol-3-yl)methyl)-3-(2-fluorobenzyl)imidazolidine-2,4-dione], for which the EC50 in assay [1] (setting [3]) was determined as 11000 nM; in assay [1] (setting [4]), 159 nM.
